Laboratory results: patent US11524962B2, “Substituted pyrrolo[2,3-d]pyrimidines as inhibitors of protein arginine methyl transferase 5 (PRMT5)” (PRELUDE THERAPEUTICS, INCORPORATED, priority 2017, dated 2022)

Key:
[1] = test system: Symmetric Di-Methyl Arginine (sDMA) marks in U-87 MG cells; assay: sDMA Western blot / In Cell Western in U-87 MG cells; type: cell-based; conditions: Homo sapiens, 72 h, 3 days, read-out: sDMA_U87 IC50
Method: Compound titration and cell culture: Compounds were dissolved in DMSO to make 10 mM stock and 3-fold series dilutions were further conducted to make working stocks top at 1 mM. Granta-519 cells were maintained in PRMI 1640 (Corning Cellgro, Catalog #: 10-040-CV) supplemented with 10% v/v FBS (GE Healthcare, Catalog #: SH30910.03) and U-87 MG cells were maintained in DMEM (Corning Cellgro, Catalog #: 10-013-CV) with 10% FBS and 2 mM Glutamin (Corning Cellgro, Catalog #25005CV).
To determine enzyme inhibition IC50 values in Granta-519 and U-87 MG cells using Western Blot analysis. One day before experiment, Granta-519 cells were passaged to a density of 0.5×10^6 cells/ml. U-87 MG cells were trypsinized and 4×10^5 cells were seeded into 6-well plates and allow to grow overnight. The next day, Granta-519 cells were spun down at 1,500 rpm for 4 min, resuspend in fresh medium at 0.5×10^6 cells/ml and 3 mL of culture (1.5×10^6 cells) were seeded into 6 well plate. Eight-point, 3-fold serial dilutions of compound working stocks were added to cells (3 ul, 1:1,000 dilution, DMSO concentration was 0.1%; final top concentration at 1 uM) and incubated for 3 days. Cells incubated with DMSO was used as a vehicle control.
Cells were harvested 3 days later, resuspended in 15 uL PBS, lysed in 4% SDS, and homogenized by passing through homogenizer column (Omega Biotek, Catalog #: HCR003). Total protein concentrations were determined by BCA assay (ThermoFisher Scientific, Catalog #: 23225). Lysates were mixed with 5× Laemmli buffer and boiled for 5 min. Forty ug of total protein was separated on SDS-PAGE gels (Bio-Rad, catalog #: 4568083, 4568043), transferred to PVDF membrane, blocked with 5% dry milk (Bio-Rad, Catalog #: 1706404) in TBS with 0.1% v/v Tween 20 (TBST) for 1 hour at room temperature (RT), and incubated with primary antibodies (sDMA: Cell signaling, Catalog #: 13222, 1:3,000; β-Actin: sigma, Catalog #: 1:5,000) in 5% dry milk in TBST at 4° C. overnight. The next day, membranes were washed with TBST, 5×5 min, and incubated with HRP conjugated seconded antibody (GE Healthcare; Catalog #: NA934-1ML, NA931-1ML; 1:5,000) for 2 hours at RT, followed by 5×5 min washes with TBST, and incubation with ECL substrates (Bio-Rad, Catalog #: 1705061, 1705062). Chemiluminescent signal was captured with Fluochem HD2 imager (Proteinsimple). SmD3me2s bands were quantified by ImageJ. Signals were normalized to β-Actin and DMSO control. IC50 values were calculated using Graphpad Prism ([Inhibitor]vs. normalized response−Variable slope).
U87-MG cells were trypsinized one day before the experiment, seeded into a 384-well plate at 2500 cells/well using a Multidrop Combi Dispenser (ThermoFisher) and allowed to grow overnight. The next day (day 0), a series of 9-point, 3-fold serial dilutions of compounds were prepared and dispensed into wells from a 1 mM stock solution using a TECAN digital dispenser (D300e) and the DMSO % concentration was normalized to 0.1%. Three days later, media was removed, and cells were processed as described above.
To determine IC50 values, the ratio for each well was calculated (sDMA 800 nm value/DRAQ5 700 nm value). Each plate included 28 negative control wells (DMSO only, minimum inhibition) and 18 positive control wells for maximum inhibition (treated with 3 uM of a reference compounds, background wells). The average ratios of minimum and maximum inhibition controls were calculated and used to determine the percentage of sDMA, relative to DMSO, for each well in the plate.
These procedures generated the sDMA data in Table 7.

[2] = test system: Granta-519 mouse xenograft; assay: Tumor growth inhibition in Granta-519 mouse xenograft model; type: in vivo
Method: Granta-519 cells was maintained in DMEM medium supplemented with 10% fetal bovine serum and 2 mM L-Glutamine at 37° C. in an atmosphere of 5% CO2 in air. Cells in exponential growth phase were harvested and 1×10^7 cells in 0.1 mL of PBS with Matrigel (1:1) were injected subcutaneously at the right lower flank region of each mouse for tumor development. The treatments were started when the mean tumor size reaches approximately 300-400 mm^3. […] Example 1 or vehicle (0.5% Na CMC+0.5% Tween80, suspension) were administered orally (BID or QD for Example 1, QD for vehicle) at a dose of 25 mg/kg BID and 50 mg/kg QD for 16 and 20 days, respectively. Body weights and tumor size were measured every 3 to 4 days after randomization. Animals were euthanized 12 hours after last dosing, and blood and tumor samples were collected for analysis.

| SMILES | IC50 [1] | body weight loss ([2]; 25 mg/kg BID oral, 16 days) | tumor growth inhibition ([2]; 25 mg/kg BID oral, 16 days) | body weight gain ([2]; 50 mg/kg QD oral, 20 days) | tumor growth inhibition ([2]; 50 mg/kg QD oral, 20 days) |
| --- | --- | --- | --- | --- | --- |
| Nc1ncnc2c1c(F)cn2[C@@H]1O[C@H]([C@H](O)c2ccc3c(c2)CC3)[C@@H](O)[C@H]1O [Example 6, (2R,3R,4S,5R)-2-(4-amino-5-fluoro-7H-pyrrolo[2,3-d]pyrimidin-7-yl)-5-((R)-bicyclo[4.2.0]octa-1(6),2,4-trien-3-yl(hydroxy)methyl)tetrahydrofuran-3,4-diol] | 94 nM |  |  |  |  |
| Cc1ncnc2c1ccn2[C@@H]1O[C@H]([C@H](O)c2ccc3c(c2)CC3)[C@@H](O)[C@H]1O [Example 11, (2R,3S,4R,5R)-2-((R)-bicyclo[4.2.0]octa-1(6),2,4-trien-3-yl(hydroxy)methyl)-5-(4-methyl-7H-pyrrolo[2,3-d]pyrimidin-7-yl)tetrahydrofuran-3,4-diol] | 53 nM |  |  |  |  |
| C[C@@](O)(c1ccc2c(c1)CC2)[C@H]1O[C@@H](n2ccc3c(N)ncnc32)[C@H](O)[C@@H]1O [Example 1, (2R,3R,4S,5S)-2-(4-amino-7H-pyrrolo[2,3-d]pyrimidin-7-yl)-5-((R)-1-(bicyclo[4.2.0]octa-1(6),2,4-trien-3-yl)-1-hydroxyethyl)tetrahydrofuran-3,4-diol] |  | 6.75% | 76.7% | 10.1% | 5.8% |
